From ChEMBL document CHEMBL3046911, “Serotonin transporter activity of imidazolidine-2,4-dione and imidazo[2,1-f]purine-2,4-dione derivatives in aspect of their acid-base properties” (Med Chem Res, 2012)

Assay: physchem

Row | Structure (SMILES) | pKa
1 | COc1ccccc1N1CCN(CCCn2ccn3c4c(=O)n(C)c(=O)n(C)c4nc23)CC1 | 8.19
2 | Cc1cn2c3c(=O)n(C)c(=O)n(C)c3nc2n1CCCN1CCN(c2cccc(Cl)c2)CC1 | 8.12
3 | O=C1NC2(CCCc3ccccc32)C(=O)N1CCCN1CCN(c2cccc(Cl)c2)CC1 (configuration not stated) | 10.8
4 | Cc1cn2c3c(=O)n(C)c(=O)n(C)c3nc2n1CCCN1CCN(c2cccc(Cl)c2Cl)CC1 | 7.61
5 | COc1ccccc1N1CCN(CCCn2c(-c3ccccc3)cn3c4c(=O)n(C)c(=O)n(C)c4nc23)CC1 | 8.44
6 | O=C1NC2(CCc3ccccc32)C(=O)N1CCCN1CCN(c2ccccc2)CC1 (configuration not stated) | 10.5
7 | Cn1c(=O)c2c(nc3n(CCCN4CCc5ccccc5C4)c(-c4ccccc4)cn23)n(C)c1=O | 10.4
8 | Cn1c(=O)c2c(nc3n(CCCN4CCN(c5ccccc5)CC4)ccn23)n(C)c1=O | 8.09
9 | COc1ccccc1N1CCN(CCCN2C(=O)NC3(CCc4ccccc43)C2=O)CC1 (configuration not stated) | 9.6
10 | Cn1c(=O)c2c(nc3n(CCCN4CCN(c5cccc(Cl)c5)CC4)ccn23)n(C)c1=O | 8.35
11 | Cc1cn2c3c(=O)n(C)c(=O)n(C)c3nc2n1CCCN1CCN(c2ccccc2)CC1 | 7.55
12 | O=C1NC2(CCc3ccccc32)C(=O)N1CCCN1CCN(c2cccc(Cl)c2)CC1 (configuration not stated) | 10.3
13 | COc1ccccc1N1CCN(CCCn2c(C)cn3c4c(=O)n(C)c(=O)n(C)c4nc23)CC1 | 7.61

Results, then the molecule that gave them:

Row | pKa | Structure (SMILES)
14 | 10.6 | O=C1NC2(CCCc3ccccc32)C(=O)N1CCCN1CCN(c2ccccc2)CC1 (configuration not stated)
15 | 8.66 | Cc1cn2c3c(=O)n(C)c(=O)n(C)c3nc2n1CCCN1CCc2ccccc2C1
16 | 10.6 | Cn1c(=O)c2c(nc3n(CCCN4CCN(c5cccc(Cl)c5)CC4)c(-c4ccccc4)cn23)n(C)c1=O
17 | 11.1 | O=C1NC2(CCCc3ccccc32)C(=O)N1CCCN1CCN(c2cccc(C(F)(F)F)c2)CC1 (configuration not stated)
18 | 10.3 | COc1ccccc1N1CCN(CCCN2C(=O)NC3(CCCc4ccccc43)C2=O)CC1 (configuration not stated)
19 | 9.96 | O=C1NC2(CCc3ccccc32)C(=O)N1CCCN1CCN(c2cccc(C(F)(F)F)c2)CC1 (configuration not stated)
20 | 10.9 | O=C1NC2(CCc3ccccc32)C(=O)N1CCCN1CCc2ccccc2C1 (configuration not stated)
21 | 10.9 | O=C1NC2(CCCc3ccccc32)C(=O)N1CCCN1CCc2ccccc2C1 (configuration not stated)
22 | 8.79 | Cn1c(=O)c2c(nc3n(CCCN4CCN(c5ccccc5)CC4)c(-c4ccccc4)cn23)n(C)c1=O
